Assay results reported in patent US6462069B2, “Compounds, pharmaceutical compositions, and methods for inhibiting protein kinases” (Agouron Pharmaceuticals, Inc., priority 2000, dated 2002).

Experiments:
CDK2/cyclin A complex = molecular target: T1, CDK2/cyclin A complex (Homo sapiens, UniProt P24941); test: Inhibition of CDK2/Cyclin A retinoblastoma kinase activity; assay type: biochemical; details: for Ki: apparent Ki
T1 construct: made in house; host or cells: CDK2: insect cells (baculovirus); cyclin A: E. coli
Description: (§1) Cyclin-dependent kinase activity was measured by quantifying the enzyme-catalyzed, time-dependent incorporation of radioactive phosphate from [^32P]ATP or [^33P]ATP into a protein substrate. Unless noted otherwise, assays were performed in 96-well plates in a total volume of 50 μL, in the presence of 10 mM HEPES (N-[2-hydroxyethyl]piperazine-N′-[2-ethanesulfonic acid]) (pH 7.4). 10 mM MgCI2, 25 μM adenosine triphosphate (ATP), 1 mg/mL ovalbumin, 5 μg/mL leupeptin, 1 mM dithiothreitol, 10 mM beta-glycerophosphate, 0.1 mM sodium vanadate, 1 mM sodium fluoride, 2.5 mM ethylene glycol-bis(β-aminoethyl ethKer)-N,N,N′N′-tetraacetic acid (EGTA), 2% (v/v) dimethylsulfoxide, and 0.03-0.4 μCi [^32/33P]ATP per reaction. Reactions were initiated with enzyme, incubated at 30° C. and terminated after 20 minutes by the addition ofethylenediaminetetraacetic acid (EDTA) to 250 mM. The phosphorylated substrate was then captured on a nitrocellulose or phosphocellulose membrane using a 96-well filtration manifold, and unincorporated radioactivity was removed by repeated washing with 0.85% phosphoric acid. Radioactivity was quantified by exposing the dried membranes to a phosphorimager.
(§2) Apparent Ki values were measured by assaying enzyme activity in the presence of different inhibitor compound concentrations and subtracting the background radioactivity measured in the absence of enzyme. Inhibition data were fit to an equation for competitive inhibition using Kaleidagraph (Synergy Software), or were fit to an equation for competitive tight-binding inhibition using the software KineTic (BioKin, Ltd.).
CDK2 was purified using published methodology (Rosenblatt et al., “Purification and Crystallization of Human Cyclin-dependent Kinase 2,” J. Mol. Biol., vol. 230, pp. 1317-1319 (1993)) from insect cells that had been infected with a baculovirus expression vector. […] Ki values were measured as described above.

CDK4/cyclin D3 complex = molecular target: T2, CDK4/cyclin D3 complex (Homo sapiens, UniProt P11802); test: Inhibition of CDK4/Cyclin D retinoblastoma kinase activity; assay type: biochemical; details: for Ki: apparent Ki
T2 construct: made in house; host or cells: insect cells co-infected with baculovirus expression vectors
T2 sequence (P11802 whole entry): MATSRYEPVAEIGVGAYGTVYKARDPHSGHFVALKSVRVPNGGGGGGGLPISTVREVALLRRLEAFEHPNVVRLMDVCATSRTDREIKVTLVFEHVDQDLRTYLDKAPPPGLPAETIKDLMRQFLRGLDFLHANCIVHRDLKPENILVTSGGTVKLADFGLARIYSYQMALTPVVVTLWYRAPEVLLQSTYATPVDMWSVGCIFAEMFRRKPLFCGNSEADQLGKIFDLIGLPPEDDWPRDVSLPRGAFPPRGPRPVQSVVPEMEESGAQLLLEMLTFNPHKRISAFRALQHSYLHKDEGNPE
T2 sequence (P30281 whole entry partner): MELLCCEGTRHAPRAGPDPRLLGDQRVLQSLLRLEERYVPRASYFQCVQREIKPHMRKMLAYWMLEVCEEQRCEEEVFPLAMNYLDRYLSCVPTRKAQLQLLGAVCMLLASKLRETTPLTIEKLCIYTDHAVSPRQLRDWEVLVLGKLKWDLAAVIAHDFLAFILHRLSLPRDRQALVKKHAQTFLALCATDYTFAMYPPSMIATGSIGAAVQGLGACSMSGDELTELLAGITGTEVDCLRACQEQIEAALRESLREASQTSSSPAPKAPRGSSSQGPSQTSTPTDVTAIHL
Description: as §1, §2
A complex of human CDK4 and cyclin D3, or a complex of human CDK4 and genetically truncated (1-264) cyclin D3, was purified using traditional biochemical chromatographic techniques from insect cells that had been co-infected with the corresponding baculovirus expression vectors ((see e.g., Meijer and Kim, “Chemical Inhibitors of Cyclin-Dependent Kinases,” Methods in Enzymol,. vol. 283, pp. 113-128 (1997)). The enzyme complex (5 or 50 nM) was assayed with 0.3-0.5 μg of purified recombinant retinoblastoma protein fragment (Rb) as a substrate. The engineered Rb fragment (residues 386-928 of the native retinoblastoma protein; 62.3 kDa) contains the majority of the phosphorylation sites found in the native 106-kDa protein, as well as a tag of six histidine residues for ease of purification. Phosphorylated Rb substrate was captured by microfiltration on a nitrocellulose membrane and quantified using a phosphorimager as described above. For measurement of tight-binding inhibitors, the enzyme complex concentration was lowered to 5 nM, and the assay duration was extended to 60 minutes, during which the time-dependence of product formation was linear.

HCT 116 cell line = test: Inhibition of cell growth, MTT tetrazolium salt assay; assay type: cell-based; details: Homo sapiens, HCT116 cells; for IC50: 50% inhibition of growth, read-out: HCT116 IC 50
Description: Inhibition of cell growth was measured using the tetrazolium salt assay, which is based on the ability of viable cells to reduce 3-(4,5-dimethylthiazol-2-yl)-2,5-[2H]-diphenyltetrazolium bromide (MTT) to formazan (Mossman, Journal of Immunological Methods, vol.65, pp. 55-58(1983)). The water-insoluble purple formazan product was then detected spectrophotometrically. The HCT 116 cell line was grown in 96-well plates. Cells were plated in the appropriate medium at a volume of 135 μl/well in McCoy's 5A Medium. Plates were incubated for four hours before addition of inhibitor compounds. Different concentrations of inhibitor compounds were added in 0.5% (v/v) dimethylsulfoxide (15 μL/well), and cells were incubated at 37° C. (5% CO2) for four to six days (depending on cell type). At the end of the incubation, MTT was added to a final concentration of 0.2 mg/mL, and cells were incubated for 4 hours more at 37° C. After centrifugation of the plates and removal of medium, the absorbance of the formazan (solubilized in dimethylsulfoxide) was measured at 540 nm. The concentration of inhibitor compound causing 50% inhibition of growth was determined from the linear portion of a semi-log plot of inhibitor concentration versus percentage inhibition. All results were compared to control cells treated only with 0.5% (v/v) dimethylsulfoxide.

[1] = molecular target: T3, full-length human CHK1 (FL-CHK1) (Homo sapiens, UniProt O14757); test: CHK1 assay (coupled spectrophotometric); assay type: biochemical
T3 construct: C-terminally His-tagged full-length human CHK1 (FL-CHK1); made in house; host or cells: baculovirus/insect cell system
T3 sequence (O14757 1-476): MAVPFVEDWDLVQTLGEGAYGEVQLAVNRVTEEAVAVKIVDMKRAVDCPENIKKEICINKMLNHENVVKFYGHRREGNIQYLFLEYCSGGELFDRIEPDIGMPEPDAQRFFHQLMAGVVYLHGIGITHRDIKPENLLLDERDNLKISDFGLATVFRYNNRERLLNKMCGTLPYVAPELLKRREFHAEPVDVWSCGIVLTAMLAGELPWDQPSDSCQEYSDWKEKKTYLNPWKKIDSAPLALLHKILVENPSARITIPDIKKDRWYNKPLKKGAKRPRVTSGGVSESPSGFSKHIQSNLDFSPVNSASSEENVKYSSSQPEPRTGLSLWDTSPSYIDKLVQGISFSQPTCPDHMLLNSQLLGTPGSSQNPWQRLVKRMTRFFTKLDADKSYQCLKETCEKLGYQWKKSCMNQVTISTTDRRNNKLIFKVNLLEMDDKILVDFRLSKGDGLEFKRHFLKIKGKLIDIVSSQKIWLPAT
Excerpt: C-terminally His-tagged full-length human CHK1 (FL-CHK1) was expressed using the baculovirus/insect cell system. It contains 6 histidine residues (6×His-tag) at the C-terminus of the 476 amino acid human CHK1. The protein was purified by conventional chromatographic techniques.
The production of ADP from ATP that accompanies phosphoryl transfer to the synthetic substrate peptide Syntide-2 ([…]) was coupled to oxidation of NADH using phosphoenolpyruvate (PEP) through the actions of pyruvate kinase (PK) and lactic dehydrogenase (LDH). The oxidation of NADH was monitored by following the decrease of absorbance at 340 nm (∈340=6.22 cm^−1 mM^−1) using a HP8452 spectrophotometer. Typical reaction solutions contained: […] PEP; 0.15 mM NADH; 28 units of LDH/ml; 16 units of PK/ml; 3 mM DTT; 0.125 mM Syntide-2: 0.15 mM ATP; 25 mM MgCI2 in 50 mM TRIS, pH 7.5; and 400 mM NaCl. Assays were initiated with 10 nM of FL-CHK1. Ki values were determined by measuring initial enzyme activity in the presence of varying concentrations of test compounds. The data were analyzed using Enzyme Kinetic and Kaleidagraph software.

Row | SMILES | Ki (CDK2/cyclin A complex) [µM] | Ki (CDK4/cyclin D3 complex) [µM] | further results
1 | COc1ccc(Nc2cc(-c3csc4ccccc34)[nH]n2)cc1 [Compound K, (5-Benzo[b]thiophen-3-yl-1H-pyrazol-3-yl)-4-(methoxy-phenyl)-amine] | 6.3 | 4.7 | 
2 | COc1cccc(-c2cccc3c(-c4cc(Nc5ccc(S(N)(=O)=O)cc5)n[nH]4)csc23)c1 [Compound Q, 4-{5-[7-(3-Methoxy-phenyl)-benzo[b]thiophen-3-yl]-1H-pyrazol-3-ylamino]-benzenesulfonamide] |  |  | inhibition at 5 µM (CDK2/cyclin A complex; at 5 μM, read-out: Percent Inhibition CDK2/A): 21%; inhibition at 5 µM (CDK4/cyclin D3 complex; at 5 μM, read-out: Percent Inhibition CDK4/D): 13%
3 | c1ccc(Nc2cc(-c3c[nH]c4ccccc34)[nH]n2)cc1 [Compound J, [5-(1H-Indol-3-yl)-1H-pyrazol-3-yl]-phenyl-amine] | 15 | 12 | Ki [1]: 18 µM
4 | COc1cccc(Nc2cc(-c3csc4ccccc34)[nH]n2)c1 [Compound M] | 21 | 4.1 | 
5 | c1ccc(Nc2n[nH]c3c2-c2ccccc2C3)cc1 [Compound D, (1,8-Dihydro-indeno[2,1-c]pyrazol-3-yl)-phenyl-amine] | 25 | 7.4 | 
6 | c1ccc(Nc2cc(-c3cscc3Sc3ccccc3)[nH]n2)cc1 [Compound I, Phenyl-[5-(4-phenylsulfanyl-thiophene-3-yl)-1H-pyrazol-3-yl]-amine] |  | 4.7 | 
7 | Oc1ccc(Nc2cc(-c3csc4ccccc34)[nH]n2)cc1 [Compound L, 4-(Benzo[b]thiophen-3-yl-1H-pyrazol-3-ylamino)-phenol] | 2 | 5.3 | 
8 | C1=C(c2cscc2-c2cc(Nc3ccccc3)n[nH]2)CCCC1 [Compound G, [5-(4-Cyclohex-1-enyl-thiophen-3-yl)-1H-pyrazol-3-yl]-phenyl-amine] | 10 | 10 | 
9 | NS(=O)(=O)c1ccc(Nc2cc(-c3csc4c(Br)cccc34)[nH]n2)cc1 [Compound P, 4-[5-(7-Bromo-benzo[b]thiophen-3-yl)-1H-pyrazol-3-ylamino]-benzenesulfonamide] | 0.11 | 2.1 | 
10 | Brc1cscc1-c1cc(Nc2ccccc2)n[nH]1 [Compound E, [5-(4-Bromo-thiophen-3-yl)-1H-pyrazol-3-yl]1-phenyl-amine] | 22 | 9.7 | 
11 | C(=C\c1cscc1-c1cc(Nc2ccccc2)n[nH]1)/c1ccccc1 [Compound F, Phenyl-[5-(4-trans-styryl-thiophen-3-yl]-1H-pyrazol-3-yl]-amine] |  |  | inhibition at 10 µM (CDK2/cyclin A complex; at 10 μM, read-out: Percent Inhibition CDK2/A): 37%; inhibition at 10 µM (CDK4/cyclin D3 complex; at 10 μM, read-out: Percent Inhibition CDK4/D): 25%
12 | NS(=O)(=O)c1ccc(Nc2cc(-c3csc4cc(O)ccc34)[nH]n2)cc1 [Compound W, 4-[5-(6-Hydroxy-benzo[b]Thiophen-3-yl)-1H-pyrazol-3-ylamino]-Benzenesulfonamide] | 0.016 | 0.9 | IC50 (HCT 116 cell line): 20 µM
13 | c1ccc(Nc2cc(-c3cscc3C3CCCCC3)[nH]n2)cc1 [Compound H, [5-(4-Cyclohexyl-thiophen-3-yl)-1H-pyrazol-3-yl]-phenyl-amine] | 3 | 3 | 
14 | NS(=O)(=O)c1ccc(Nc2cc(-c3c[nH]c4ccccc34)[nH]n2)cc1 [Compound X, 4-[5-(1H-Indol-3-yl)-1H-pyrazol-3-ylamino]-Benzenesulfonamide] | 0.39 | 12 | Ki [1]: 1.8 µM

Now from value to compound, other results behind:

Row | Ki (CDK2/cyclin A complex) [µM] | Ki (CDK4/cyclin D3 complex) [µM] | SMILES | further results
15 | 0.062 | 1.6 | NS(=O)(=O)c1ccc(Nc2cc(-c3csc4ccccc34)[nH]n2)cc1 [Compound O] | IC50 (HCT 116 cell line): 9.5 µM; IC90 (HCT 116 cell line; read-out: HCT116 IC 90): 24 µM
16 | 0.27 | 12 | COc1ccc2c(-c3cc(Nc4ccc(S(N)(=O)=O)cc4)n[nH]3)csc2c1 [Compound V, 4-[5-(6-Methoxy-benzo[b]Thiophen-3-yl)-1H-pyrazol-3-ylamino]-Benzenesulfonamide] | 
17 | 2.4 | 4.9 | Oc1cccc(Nc2cc(-c3csc4ccccc34)[nH]n2)c1 [Compound N, 3-(Benzo[b]thiophen-3-yl-1H-pyrazol-3-ylamino)-phenol] | 
18 | 0.08 | 2.3 | NS(=O)(=O)c1ccc(Nc2cc(-c3csc4ccc(Br)cc34)[nH]n2)cc1 [Compound U, {5-[3-(5-Bromo)-benzo[b]Thiophenyl]-1-H-pyrazol-3-yl}-phenylamine-4-Sulfonamide] | 
19 | 2.7 | 3.3 | NS(=O)(=O)c1ccc(Nc2cc(-c3csc4c(-c5cccc(O)c5)cccc34)[nH]n2)cc1 [Compound R, 4-{5-[7-(3-Hydroxy-phenyl)-benzo[b]thiophen-3-yl]-1H pyrazol-3-ylamino]-benzenesulfonamide] | inhibition at 10 µM ([1]; at 10 μM, read-out: Percent Inhibition CHK1): 8%
20 | 61 | 59 | c1ccc(Nc2cc(-c3cccnc3)[nH]n2)cc1 [Compound C] | Ki [1]: 1.5 µM
21 | 3.2 | 2.1 | NS(=O)(=O)c1ccc(Nc2cc(-c3csc4c(-c5ccc(O)cc5)cccc34)[nH]n2)cc1 [Compound T, 4-{5-[7-(4-Hydroxy-phenyl)-benzo[b]thiophen-3-yl]-1H-pyrazol-3-ylamino]-benzenesulfonamide] | 
